Test [1] deals with T1, DNA dC->dU-editing enzyme APOBEC-3A (Homo sapiens, UniProt P31941). Put plainly: SAR analysis of small molecule inhibitors of APOBEC3A DNA Deaminase via a fluorescence-based single-stranded DNA deaminase assay - Set 2. It is filed as functional. To be noted: read-out: IC50_Mean.
The target in test [2] is T2, DNA dC->dU-editing enzyme APOBEC-3G (Homo sapiens, UniProt Q9HC16). The test is described as follows: SAR analysis of small molecule inhibitors of APOBEC3G DNA Deaminase via a fluorescence-based single-stranded DNA deaminase assay - Set 2. It is filed as functional. As to conditions: read-out: IC50_Mean.
T2 sequence (Q9HC16 whole entry): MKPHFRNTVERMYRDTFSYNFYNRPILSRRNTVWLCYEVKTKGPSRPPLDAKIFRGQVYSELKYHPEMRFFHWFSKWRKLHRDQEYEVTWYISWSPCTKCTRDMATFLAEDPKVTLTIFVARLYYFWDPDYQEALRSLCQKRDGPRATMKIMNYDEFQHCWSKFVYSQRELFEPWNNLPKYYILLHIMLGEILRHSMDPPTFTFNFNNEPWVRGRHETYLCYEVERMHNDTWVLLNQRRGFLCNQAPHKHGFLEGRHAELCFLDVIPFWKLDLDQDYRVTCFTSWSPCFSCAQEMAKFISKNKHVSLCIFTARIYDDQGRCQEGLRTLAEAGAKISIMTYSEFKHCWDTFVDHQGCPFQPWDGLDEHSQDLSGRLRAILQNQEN
Test [3] concerns the target T1, DNA dC->dU-editing enzyme APOBEC-3A. The test is described as follows: SAR analysis of small molecule inhibitors of APOBEC3A DNA Deaminase via a fluorescence-based single-stranded DNA deaminase assay. It is filed as functional. To be noted: read-out: IC50_Mean.
For test [4] the target is unchanged. The test is described as follows: APOBEC3A DNA deaminase inhibitors, dose response, biochemical (AID 504722). It is filed as functional.
For test [5], the target named is T2, DNA dC->dU-editing enzyme APOBEC-3G. The test is described as follows: Dose Response confirmation of small molecule APOBEC3G DNA Deaminase Inhibitors via a fluorescence-based single-stranded DNA deaminase assay. [Related pubchem assays (depositor defined):AID493012, AID493028]. It is filed as functional.
The target is the same in test [6]. The test is described as follows: APOBEC3G deaminase inhibitors, SAR follow-up, biochemical, fluorescence, single-stranded DNA substrate (AID 602136). It is filed as functional. To be noted: read-out: IC50_Mean.
The target in a further test is ORF 73 (Human herpesvirus 8, UniProt O40947). Put plainly: inhibitors of C-LANA binding to LBS DNA, dose response, biochemical, fluorescence polarization, cherry-picked samples (AID 504725).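 Also: fluorescence polarization of a labeled DNA duplex reporting LANA DNA binding; potency is for inhibitors that block LANA binding to the DNA.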 Set-up: species or system Human gammaherpesvirus 8. In general terms: In fluorescence polarisation assays a small probe gives low polarisation when free and higher when bound to something large.

The target in test [7] is Benomyl/methotrexate resistance protein (Candida albicans, UniProt P28873). The test is described as follows: CaMdr1 efflux pump inhibitor potency, dose response, singleplex, Cherry Pick1 hits (AID 588608). It is filed as functional.
In test [8] the target is Multidrug resistance protein CDR2 (Candida albicans (strain SC5314 / ATCC MYA-2876) (Yeast), UniProt P78595). Put plainly: CaCDR2 efflux pump inhibitors in yeast, dose response, S. cerevisiae AD1-8u, singleplex, Cherry Pick1 hits (AID 588604). It is filed as functional.
In test [9] the target is Mitogen-activated protein kinase 13 (Homo sapiens, UniProt O15264). It is filed as functional.
Chain of Mitogen-activated protein kinase 13 (O15264 whole entry): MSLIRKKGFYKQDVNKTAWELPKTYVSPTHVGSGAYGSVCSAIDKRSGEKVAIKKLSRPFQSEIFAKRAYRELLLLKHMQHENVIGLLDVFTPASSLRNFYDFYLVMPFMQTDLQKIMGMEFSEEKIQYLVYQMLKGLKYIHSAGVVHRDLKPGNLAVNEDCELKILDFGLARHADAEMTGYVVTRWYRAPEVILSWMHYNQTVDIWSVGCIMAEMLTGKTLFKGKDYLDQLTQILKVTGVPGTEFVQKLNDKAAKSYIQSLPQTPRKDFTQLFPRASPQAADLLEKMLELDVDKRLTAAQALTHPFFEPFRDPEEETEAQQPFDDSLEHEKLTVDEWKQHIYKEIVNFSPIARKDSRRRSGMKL
The target in test [10] is Dual specificity tyrosine-phosphorylation-regulated kinase 1A (Homo sapiens, UniProt Q13627). It is filed as functional.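 Also: measured against DYRK1A as one member of a broad kinome profiling panel.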
The target in test [11] is Vascular endothelial growth factor receptor 1 (Homo sapiens, UniProt P17948). It is filed as functional.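 Also: measured within a kinome-wide profiling panel, FLT1 as the panel member.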
The target of test [12] is Insulin-like growth factor 1 receptor (Homo sapiens, UniProt P08069). The test is described as follows: Navigating the Kinome. Panel member name: IGF1R. It is filed as functional.
The target of test [13] is Tyrosine-protein kinase JAK2 (Homo sapiens, UniProt O60674). It is filed as functional.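 Also: JAK2 tested as one member of a kinase panel.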
Test [14] has as its target Serine/threonine-protein kinase pim-2 (Homo sapiens, UniProt Q9P1W9). It is filed as functional.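 Also: value comes from a broad kinase panel profiling study in which PIM2 was one of the panel members.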
A further test deals with Aurora kinase A (Homo sapiens, UniProt O14965). It is filed as functional.
Test [15] concerns the target Tyrosine-protein kinase Blk (Homo sapiens, UniProt P51451). It is filed as functional.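 Also: obtained as one member of a kinome-wide kinase assay panel.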
Test [16] concerns the target Tyrosine-protein kinase JAK3 (Homo sapiens, UniProt P52333). It is filed as functional.
In test [17] the target is Serine/threonine-protein kinase PAK 4 (Homo sapiens, UniProt O96013). It is filed as functional.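 Also: value obtained within a kinome profiling panel in which PAK4 was one of the panel members.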
Test [18] concerns the target Dual specificity tyrosine-phosphorylation-regulated kinase 1B (Homo sapiens, UniProt Q9Y463). Put plainly: Navigating the Kinome. Panel member name: DYRK1B. It is filed as functional.
Test [19] addresses Tyrosine-protein kinase ITK/TSK (Homo sapiens, UniProt Q08881). It is filed as functional.
The target in test [20] is Receptor tyrosine-protein kinase erbB-2 (Homo sapiens, UniProt P04626). Put plainly: Navigating the Kinome. Panel member name: ERBB2. It is filed as functional.
In test [21] the target is Leucine-rich repeat serine/threonine-protein kinase 2 (Homo sapiens, UniProt Q5S007). It is filed as functional.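 Also: value from a broad kinome-wide panel profiling study in which LRRK2 was one of the kinases tested.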
Chain of Leucine-rich repeat serine/threonine-protein kinase 2 (Q5S007 whole entry): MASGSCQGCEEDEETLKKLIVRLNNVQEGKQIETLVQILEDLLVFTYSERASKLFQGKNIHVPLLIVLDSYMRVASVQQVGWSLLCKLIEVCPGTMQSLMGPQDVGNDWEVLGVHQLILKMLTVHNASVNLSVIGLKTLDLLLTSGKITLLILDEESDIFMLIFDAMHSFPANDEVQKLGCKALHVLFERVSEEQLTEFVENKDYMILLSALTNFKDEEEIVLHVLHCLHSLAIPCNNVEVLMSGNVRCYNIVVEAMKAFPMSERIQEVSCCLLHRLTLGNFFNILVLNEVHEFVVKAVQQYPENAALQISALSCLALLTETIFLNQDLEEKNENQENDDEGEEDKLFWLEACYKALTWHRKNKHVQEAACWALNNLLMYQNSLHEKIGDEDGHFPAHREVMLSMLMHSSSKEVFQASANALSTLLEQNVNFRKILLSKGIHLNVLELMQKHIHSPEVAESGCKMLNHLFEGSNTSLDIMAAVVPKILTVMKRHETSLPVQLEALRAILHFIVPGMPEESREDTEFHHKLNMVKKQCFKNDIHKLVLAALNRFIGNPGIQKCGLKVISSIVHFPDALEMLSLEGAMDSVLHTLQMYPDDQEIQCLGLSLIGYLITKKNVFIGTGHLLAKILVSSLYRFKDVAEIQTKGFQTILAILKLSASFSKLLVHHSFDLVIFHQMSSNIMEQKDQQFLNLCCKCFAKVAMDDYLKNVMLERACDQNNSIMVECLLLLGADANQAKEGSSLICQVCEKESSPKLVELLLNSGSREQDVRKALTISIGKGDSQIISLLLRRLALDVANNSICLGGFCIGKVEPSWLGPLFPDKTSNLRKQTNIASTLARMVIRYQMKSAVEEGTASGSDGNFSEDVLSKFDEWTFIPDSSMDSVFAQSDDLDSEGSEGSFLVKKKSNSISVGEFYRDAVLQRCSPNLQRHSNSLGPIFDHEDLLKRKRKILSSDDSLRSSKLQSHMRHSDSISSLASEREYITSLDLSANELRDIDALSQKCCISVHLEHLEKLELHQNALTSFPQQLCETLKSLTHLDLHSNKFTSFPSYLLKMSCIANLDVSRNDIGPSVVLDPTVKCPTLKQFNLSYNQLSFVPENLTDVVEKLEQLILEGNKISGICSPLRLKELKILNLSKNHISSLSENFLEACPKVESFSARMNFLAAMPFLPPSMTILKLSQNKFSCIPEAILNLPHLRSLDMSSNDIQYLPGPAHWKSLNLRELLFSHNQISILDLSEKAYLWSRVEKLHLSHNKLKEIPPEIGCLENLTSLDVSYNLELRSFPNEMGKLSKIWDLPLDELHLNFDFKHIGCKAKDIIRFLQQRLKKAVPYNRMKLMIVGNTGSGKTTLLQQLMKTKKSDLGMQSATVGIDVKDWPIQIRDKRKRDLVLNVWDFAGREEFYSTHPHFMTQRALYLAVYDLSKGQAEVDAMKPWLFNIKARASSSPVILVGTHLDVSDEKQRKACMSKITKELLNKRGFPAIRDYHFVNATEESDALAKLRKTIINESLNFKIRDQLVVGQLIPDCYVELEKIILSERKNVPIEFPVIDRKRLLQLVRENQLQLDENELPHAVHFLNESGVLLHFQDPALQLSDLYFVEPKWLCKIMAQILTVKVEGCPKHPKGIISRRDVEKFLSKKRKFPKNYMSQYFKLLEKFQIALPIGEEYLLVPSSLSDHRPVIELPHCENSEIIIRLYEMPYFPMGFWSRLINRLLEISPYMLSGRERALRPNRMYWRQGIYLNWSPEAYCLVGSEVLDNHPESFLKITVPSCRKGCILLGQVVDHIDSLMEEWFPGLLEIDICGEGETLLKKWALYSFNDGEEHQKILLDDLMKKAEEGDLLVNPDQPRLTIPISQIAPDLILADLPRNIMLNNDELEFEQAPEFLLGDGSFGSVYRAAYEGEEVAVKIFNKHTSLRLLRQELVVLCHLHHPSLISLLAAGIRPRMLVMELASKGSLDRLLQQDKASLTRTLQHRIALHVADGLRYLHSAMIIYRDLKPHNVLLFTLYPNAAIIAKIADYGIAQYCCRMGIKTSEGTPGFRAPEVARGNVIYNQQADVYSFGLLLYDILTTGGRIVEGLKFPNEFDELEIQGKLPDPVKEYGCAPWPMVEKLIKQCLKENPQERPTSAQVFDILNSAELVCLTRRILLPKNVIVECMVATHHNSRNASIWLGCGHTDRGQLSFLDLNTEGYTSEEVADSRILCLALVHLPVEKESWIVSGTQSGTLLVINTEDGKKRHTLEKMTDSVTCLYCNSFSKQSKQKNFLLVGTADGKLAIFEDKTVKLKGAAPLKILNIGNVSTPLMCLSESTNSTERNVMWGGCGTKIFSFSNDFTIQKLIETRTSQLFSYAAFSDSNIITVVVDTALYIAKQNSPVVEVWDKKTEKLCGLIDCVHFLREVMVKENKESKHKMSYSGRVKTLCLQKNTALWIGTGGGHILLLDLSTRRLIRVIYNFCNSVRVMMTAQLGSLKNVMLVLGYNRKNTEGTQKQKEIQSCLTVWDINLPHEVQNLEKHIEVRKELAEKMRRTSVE
In test [22] the target is Fibroblast growth factor receptor 3 (Homo sapiens, UniProt P22607). It is filed as functional.
Test [23] has as its target MAP/microtubule affinity-regulating kinase 3 (Homo sapiens, UniProt P27448). It is filed as functional.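 Also: MARK3 affinity measured as one member of a kinome panel.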
Test [24] concerns the target Vascular endothelial growth factor receptor 2 (Homo sapiens, UniProt P35968). It is filed as functional.
In test [25] the target is Serine/threonine-protein kinase D2 (Homo sapiens, UniProt Q9BZL6). It is filed as functional.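 Also: measured against PRKD2 as one member of a kinome-wide kinase profiling panel.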
Chain of Serine/threonine-protein kinase D2 (Q9BZL6 whole entry): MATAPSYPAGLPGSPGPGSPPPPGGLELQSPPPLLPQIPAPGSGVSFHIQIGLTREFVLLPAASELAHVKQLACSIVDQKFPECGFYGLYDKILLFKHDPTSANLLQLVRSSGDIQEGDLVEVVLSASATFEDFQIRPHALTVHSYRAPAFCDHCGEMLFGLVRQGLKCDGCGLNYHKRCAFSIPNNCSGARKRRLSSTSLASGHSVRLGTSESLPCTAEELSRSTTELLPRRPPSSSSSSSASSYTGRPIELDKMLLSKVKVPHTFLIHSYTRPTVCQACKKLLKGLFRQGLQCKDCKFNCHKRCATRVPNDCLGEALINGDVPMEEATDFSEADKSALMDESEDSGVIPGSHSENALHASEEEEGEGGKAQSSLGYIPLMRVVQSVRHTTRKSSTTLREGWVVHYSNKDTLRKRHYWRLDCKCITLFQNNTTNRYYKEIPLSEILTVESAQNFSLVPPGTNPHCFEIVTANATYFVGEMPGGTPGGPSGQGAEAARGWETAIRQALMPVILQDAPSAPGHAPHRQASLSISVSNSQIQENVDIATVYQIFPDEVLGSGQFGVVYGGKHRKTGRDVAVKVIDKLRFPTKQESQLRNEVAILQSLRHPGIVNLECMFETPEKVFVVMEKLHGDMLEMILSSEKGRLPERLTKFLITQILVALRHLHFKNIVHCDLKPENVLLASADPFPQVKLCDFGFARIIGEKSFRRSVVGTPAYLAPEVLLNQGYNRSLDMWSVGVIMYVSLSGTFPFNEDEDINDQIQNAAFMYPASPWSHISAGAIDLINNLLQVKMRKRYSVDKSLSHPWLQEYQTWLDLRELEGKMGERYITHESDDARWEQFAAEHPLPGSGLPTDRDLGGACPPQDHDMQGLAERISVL
Test [26] concerns the target Tyrosine-protein kinase Fyn (Homo sapiens, UniProt P06241). It is filed as functional.
For test [27], the target named is Tyrosine-protein kinase ABL1 (Homo sapiens, UniProt P00519). It is filed as functional.
Test [28] addresses Tyrosine-protein kinase Lyn (Homo sapiens, UniProt P07948). It is filed as functional.
For the next test, the target named is Activin receptor type-1 (Homo sapiens, UniProt Q04771). Put plainly: Navigating the Kinome. Panel member name: ACVR1. It is filed as functional.
The nature of test [29]: nonselective inhibitors of cellular cAMP signaling, dose response, counter-screen for MC4R biased antagonist project, cell-based, TR-FRET cAMP detection (AID 602305).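 Also: U2OS cells stimulated with forskolin near its EC80 as the cAMP inducer; potency is for inhibition of forskolin-stimulated cAMP signaling.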 It is filed as functional. A general note: A counterscreen serves to expose hits that act by an unwanted route or on another target.
For another test, the target named is Melanocortin receptor 4 (Homo sapiens, UniProt P32245). Put plainly: MC4R antagonist potency on cAMP, dose response, cell-based, TR-FRET, biased antagonists (AID 602298).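 Also: antagonist potency against agonist-stimulated cAMP production.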 It is filed as functional.
In the next test the target is Aurora kinase B (Homo sapiens, UniProt Q96GD4). It is filed as functional.
Chain of Aurora kinase B (Q96GD4 whole entry): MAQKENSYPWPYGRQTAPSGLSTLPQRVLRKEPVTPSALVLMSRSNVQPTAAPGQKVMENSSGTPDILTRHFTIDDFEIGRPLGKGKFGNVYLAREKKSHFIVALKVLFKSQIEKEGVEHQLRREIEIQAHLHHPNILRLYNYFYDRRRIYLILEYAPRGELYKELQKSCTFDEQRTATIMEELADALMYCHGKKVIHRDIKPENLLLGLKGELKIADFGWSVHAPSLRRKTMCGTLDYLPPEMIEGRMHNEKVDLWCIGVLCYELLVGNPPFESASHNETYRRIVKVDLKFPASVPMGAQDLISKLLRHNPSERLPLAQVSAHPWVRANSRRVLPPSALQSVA
Test [30] deals with Serine/threonine-protein kinase TAO1 (Homo sapiens, UniProt Q7L7X3). It is filed as functional.
Test [31] deals with Calcium/calmodulin-dependent protein kinase type II subunit beta (Homo sapiens, UniProt Q13554). It is filed as functional.
Test [32] concerns the target Receptor-type tyrosine-protein kinase FLT3 (Homo sapiens, UniProt P36888). It is filed as functional.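 Also: FLT3 was tested as one member of a kinome-wide kinase panel.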
For test [33], the target named is Calcium/calmodulin-dependent protein kinase type II subunit gamma (Homo sapiens, UniProt Q13555). It is filed as functional.
Test [34] deals with Calcium/calmodulin-dependent protein kinase type II subunit delta (Homo sapiens, UniProt Q13557). It is filed as functional.
The target of test [35] is cAMP-dependent protein kinase catalytic subunit alpha (Homo sapiens, UniProt P17612). It is filed as functional.
Test [36] has as its target Proto-oncogene tyrosine-protein kinase ROS (Homo sapiens, UniProt P08922). It is filed as functional.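 Also: ROS1 tested as one member of a kinome-wide kinase panel.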
For test [37], the target named is Cyclin-dependent kinase 1 (Homo sapiens, UniProt P06493). It is filed as functional.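 Also: Kinome-wide panel profiling, with the target listed as panel member CDC2.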
Chain of Cyclin-dependent kinase 1 (P06493 whole entry): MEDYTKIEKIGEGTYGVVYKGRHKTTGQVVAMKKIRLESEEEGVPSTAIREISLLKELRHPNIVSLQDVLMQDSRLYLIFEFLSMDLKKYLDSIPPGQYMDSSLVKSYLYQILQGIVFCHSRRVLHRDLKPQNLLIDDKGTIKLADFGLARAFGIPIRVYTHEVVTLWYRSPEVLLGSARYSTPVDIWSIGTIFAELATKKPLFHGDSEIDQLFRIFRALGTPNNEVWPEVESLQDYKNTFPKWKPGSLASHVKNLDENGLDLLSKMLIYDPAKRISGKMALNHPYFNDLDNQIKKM
For test [38], the target named is Mitogen-activated protein kinase 1 (Homo sapiens, UniProt P28482). It is filed as functional.
Test [39] concerns the target Dual specificity protein kinase CLK4 (Homo sapiens, UniProt Q9HAZ1). It is filed as functional.

Structures are written as SMILES. Calls of active or inactive are those of the source.

T1 sequence (P31941 whole entry): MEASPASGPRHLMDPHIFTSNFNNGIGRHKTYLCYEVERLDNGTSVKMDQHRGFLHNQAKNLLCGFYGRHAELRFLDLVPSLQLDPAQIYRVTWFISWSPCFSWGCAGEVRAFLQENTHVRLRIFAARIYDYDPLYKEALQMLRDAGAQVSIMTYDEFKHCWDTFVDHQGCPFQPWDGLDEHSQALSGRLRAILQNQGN

`S=c1[nH]nc2c3c4c(sc3ncn12)CCCC4`: the IC50 is > 99000 nM (inactive) in test [1]; > 99000 nM (inactive) in [2]; > 99000 nM (inactive) in test [3]; > 100000 nM (inactive) in test [4]; 992 nM (active) in test [5]; 3150 nM (active) in test [6].
By AC50 is commonly meant the concentration at which the activity in the assay is half-maximal. What is called EC50 is the concentration at which the effect is half-maximal. Regarding `O=C1/C(=C/c2ccco2)Oc2c1ccc(O)c2CN1CCCCC1`, at ORF 73, the AC50 was 14500 nM (active). The EC50 was 9630 nM (active) in test [7] and 18400 nM (active) in test [8].
By Ki is commonly meant the dissociation constant of the complex between target and ligand, obtained from inhibition or displacement. For orientation: pKi means −log10 of the Ki, conventionally taken in molar units. `O=S(=O)(c1cccc2cnccc12)N1CCCNCC1` [FASUDIL]: the Ki was > 7940 nM (inactive) in test [9]; > 1260 nM (inactive) in test [10]; > 398 nM (inactive) in test [11]; > 1000 nM (inactive) in test [12]; > 1580 nM (inactive) in test [13]; > 1580 nM (inactive) in [14]. Besides, the Ki at Aurora kinase A was > 1580 nM (inactive); in [15], > 1580 nM (inactive); in test [16] it was > 1580 nM (inactive); in test [17], > 5010 nM (inactive); in test [18], > 1260 nM (inactive); in test [19], > 1580 nM (inactive). The Ki was > 1580 nM (inactive) in test [20]; 2000 nM (active) in test [21]; > 2000 nM (inactive) in test [22]; > 5010 nM (inactive) in test [23]; > 2000 nM (inactive) in test [24]; 1260 nM (active) in test [25]. Further, the Ki in test [26] was > 794 nM (inactive); in test [27], > 631 nM (inactive); in test [28] it was > 1580 nM (inactive); on Activin receptor type-1, > 3980 nM (inactive). Further, the pKi in test [21] is given as 5.7; in [25] it was 5.9.
For `Cc1ccc(CNC(=O)COC(=O)Cn2nc(C)c([N+](=O)[O-])c2C)cc1`, the IC50 in test [29] was > 64600 nM (inactive); on Melanocortin receptor 4, 14400 nM (inactive).
Turning to `CCCCOc1ccc(C(C)(C)CC)cc1S(=O)(=O)Nc1ccc(-c2csc3ncnc(N)c23)cc1`, the inhibition constant (Ki) is 6310 nM (active) on Aurora kinase B; 7940 nM (active) in test [30]; 3980 nM (active) in test [31]; 2000 nM (active) in test [32]; 6310 nM (active) in [33]; 6310 nM (active) in test [34].
Regarding `CN(c1ncccc1CNc1nc(Nc2ccc3c(c2)CC(=O)N3)ncc1C(F)(F)F)S(C)(=O)=O` [PF-00562271], the Ki in [9] was > 7940 nM (inactive); at Aurora kinase B, 63.1 nM (active); in test [35] it was 158 nM (active); in [36], 12.6 nM (active); in [37], 63.1 nM (active); in test [21], 158 nM (active). For the same molecule, the Ki in test [38] and in test [39] was 63.1 nM (active) in each case.

These data come from ChEMBL document CHEMBL1201862, “PubChem BioAssay data set” (2004).
